Holding throughout (assay): relative viability (nuclei count vs DMSO), 5 days (fraction); higher = more cells survive
Compound in test [1]: Cc1ccc(C(=O)N(CCCN)[C@@H](c2nc3cc(Cl)ccc3c(=O)n2Cc2ccccc2)C(C)C)cc1 [Ispinesib] + COc1cccc2cc(-c3nc([C@H]4CC[C@H](C(=O)O)CC4)n4ncnc(N)c34)[nH]c12 [OSI-027] (partner 0.5 µM)
In short, it runs like this:
(§1)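 After 5 days of treatment, lung cancer cells in 1536-well plates were fixed and stained in a single step (final 0.05% Triton X-100, 1% formaldehyde, 1 ug/ml Hoechst) and their nuclei counted on 4× images. Treatment had been applied by pin tool the day after seeding as one drug alone or as a fixed anchor-drug dose with five library-drug doses (not always all listed) in √10 steps. Relative viability is the nuclei count of treated wells divided by that of vehicle wells, and values are medians of duplicate plates.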

Compound in test [2]: Cc1ccc(C(=O)N(CCCN)[C@@H](c2nc3cc(Cl)ccc3c(=O)n2Cc2ccccc2)C(C)C)cc1 [Ispinesib] + CC(C)C[C@H](NC(=O)[C@H](Cc1ccccc1)NC(=O)c1cnccn1)B(O)O [Bortezomib] (partner 0.002 µM)
In outline: as §1

Compound in test [3]: C[C@]1(O)C[C@@H](c2nc(-c3ccc4ccc(-c5ccccc5)nc4c3)c3c(N)nccn32)C1 [Linsitinib] + C[C@@H](Oc1cc(-c2cnn(C3CCNCC3)c2)cnc1N)c1c(Cl)ccc(F)c1Cl [Crizotinib] (partner 1 µM)
In outline: as §1

Compound in test [4]: Cc1ccc(C(=O)N(CCCN)[C@@H](c2nc3cc(Cl)ccc3c(=O)n2Cc2ccccc2)C(C)C)cc1 [Ispinesib] + CC1(C)CCC(c2ccc(Cl)cc2)=C(CN2CCN(c3ccc(C(=O)NS(=O)(=O)c4ccc(N[C@H](CCN5CCOCC5)CSc5ccccc5)c(S(=O)(=O)C(F)(F)F)c4)cc3)CC2)C1 [Navitoclax] (partner 0.5 µM)
In outline: as §1

For UMC-11, the relative viability in test [1] (first compound 0.001 µM) was 0.484; in test [1] (first compound 0.003162 µM) it was 0.429; in test [1] (first compound 0.01 µM), 0.445; in test [1] (first compound 0.03162 µM) it was 0.219; in test [1] (first compound 0.1 µM), 0.239; in test [2] (first compound 0.001 µM), 0.505. For the same cell line, the relative viability in test [2] (first compound 0.003162 µM) was found to be 0.72; in test [2] (first compound 0.01 µM), 0.657; in test [2] (first compound 0.03162 µM) it was 0.207; in test [2] (first compound 0.1 µM) it was 0.183; in test [3] (first compound 0.01 µM), 0.698; in test [3] (first compound 0.03162 µM) it was 0.448. The relative viability in test [3] (first compound 0.1 µM) was 0.642; in test [3] (first compound 1 µM), 0.549; in test [4] (first compound 0.001 µM), 0.314; in test [4] (first compound 0.003162 µM), 0.371; in test [4] (first compound 0.01 µM), 0.267; in test [4] (first compound 0.03162 µM), 0.176. In addition, the relative viability in test [4] (first compound 0.1 µM) is 0.216.

Values taken from the supplement of paper PMC10307832.
